Results: patent US20090068143A1, “ORALLY EFFECTIVE C[…]” (priority 2005, published 2009)
Like-named read-outs stand apart in the source and are kept apart here.

Tests used:
visceral pain = assay: Visceral pain, acetic acid induced writhing responses; type: in vivo, ICR mice; conditions: for inhibition of pain response as compared to untreated animals: 10 mg/kg p.o. in phosphate buffer; for reduction of writhing responses as compared to vehicle treated animals: second study; for effect of antagonist alone on number of writhing responses: 1 mg/kg i.v.; for activity in visceral pain model: fumaric acid up to 5 mg/kg, Gabapentin up to 200 mg/kg, celecoxib up to 10 mg/kg
Protocol: For the i.v. part of the study, compounds were dissolved in CREMOPHOR®:Ethanol and diluted 1:20 in saline prior to injection, fifteen minutes before pain induction. When compounds were delivered per os, they were dissolved in phosphate buffer or in CREMOPHOR®:Ethanol as previously described and administered 1 hour before pain induction. Each treatment group, except for controls comprising at least 30 animals, was composed of at least 6 animals. Fifteen or sixty minutes later, depending on the route selected for drug administration, the mice were injected i.p. with 10 ml/kg of 0.6% acetic acid and the number of visceral pain related behaviors (writhing, stretching, contractions of the abdomen accompanied by an elongation of the body and extension of the hind limbs) is counted over a period of 5 minutes, starting 5 minutes after the acetic acid administration. These visceral pain related behaviors are globally defined as writhing responses (WR). The results are expressed as mean number of writhing responses±SEM. Data were analyzed using analysis of variance (ANOVA) followed by post-hoc Fisher test. A value of p<0.05 was considered to be statistically significant and is indicated on the figure by an asterisk over the relevant treatment group.
The following results were obtained at 2 mg/kg i.v. of test compounds or, in the case of the study performed with cannabinoid receptor antagonists, 1 mg/kg test compound or antagonist alone and 1 mg/kg test compound+1 mg/kg antagonist. In a separate study, it was shown that analgesic activity of compounds of the invention was dose related.

CB2 receptor = CB2 receptor (Homo sapiens, UniProt P34972); assay: CB2 binding assay
Chain of CB2 receptor (P34972 whole entry): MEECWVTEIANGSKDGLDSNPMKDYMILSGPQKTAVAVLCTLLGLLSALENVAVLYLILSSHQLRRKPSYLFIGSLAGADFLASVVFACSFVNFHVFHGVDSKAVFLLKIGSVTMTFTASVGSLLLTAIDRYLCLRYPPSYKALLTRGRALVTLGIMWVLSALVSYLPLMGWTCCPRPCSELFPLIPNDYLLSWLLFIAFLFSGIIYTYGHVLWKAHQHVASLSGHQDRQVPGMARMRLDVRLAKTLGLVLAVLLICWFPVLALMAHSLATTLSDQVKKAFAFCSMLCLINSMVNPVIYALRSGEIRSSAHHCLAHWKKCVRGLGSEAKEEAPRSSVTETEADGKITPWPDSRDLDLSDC

CB1 receptor = CB1 receptor (Homo sapiens, UniProt P21554); assay: CB1 binding assay
Chain of CB1 receptor (P21554 whole entry): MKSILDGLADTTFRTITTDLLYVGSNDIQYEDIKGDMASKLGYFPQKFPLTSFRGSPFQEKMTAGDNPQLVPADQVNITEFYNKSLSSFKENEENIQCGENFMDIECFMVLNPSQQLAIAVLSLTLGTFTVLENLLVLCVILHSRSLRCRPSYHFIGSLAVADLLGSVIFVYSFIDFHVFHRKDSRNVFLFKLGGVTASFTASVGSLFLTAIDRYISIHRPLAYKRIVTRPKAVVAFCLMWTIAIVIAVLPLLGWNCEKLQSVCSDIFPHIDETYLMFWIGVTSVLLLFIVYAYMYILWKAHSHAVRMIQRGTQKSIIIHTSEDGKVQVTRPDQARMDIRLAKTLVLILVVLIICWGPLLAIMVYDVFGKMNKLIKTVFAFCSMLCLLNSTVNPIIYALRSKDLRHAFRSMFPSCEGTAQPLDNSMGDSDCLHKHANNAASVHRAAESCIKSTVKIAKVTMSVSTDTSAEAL

inflammatory pain = assay: Inflammatory pain and paw edema, λ carrageenan; type: in vivo, Sprague Dawley rats
Protocol: Male Sprague Dawley rats (average body weight 200 g, Harlan, Israel) were transiently sedated by placement on dry ice for the duration of the injections. Rats were injected subcutaneously, in the subplantar region of one (right) paw with 0.1 ml of 2% w/v λ Carrageenan in sterile saline. […] Test compounds were administered p.o. by oral gavage immediately after the carrageenan injection as pretreatment. Vehicle (PB) treated animals were used as controls. Before induction of inflammatory pain and three hours after injection, the animals reactions to pain stimuli were tested in two systems. The first stimulus was thermal and assessed by the Plantar Test according to Hargreaves, using Ugo Basile Model 7370. The scale was set to an intensity of 50 arbitrary units. The latency time till the animal lift a paw as a reaction to the thermal stimulus was recorded for both the inflamed and non-inflamed hind paws. The second stimulus was mechanical (tactile) and assessed using a Dynamic Plantar Sesthesiomether (Ugo Basile Model 73400-002). […] Finally, the impact on paw edema was assessed. Paw thickness is measured using a dial thickness gauge (Spring-dial, constant low pressure gauge, Mitutoyo, TG/L-1, 0.00 mm) and paw volume is measured using a plethysmometer (model #7150, Ugo Basile, Italy). At the end of the study, animals were euthanized with an i.p. injection of 100 mg/kg pentobarbitone.
The results are measured as the differences between the two hind paws at time 0 and 3 hours both as ALT, for the latency time in the thermal part of the study, and as ΔForce, for the mechanical part of the study. The paw volume is expressed as percent from vehicle treated animals. Results are expressed as mean±SEM for each treatment group and the differences among those groups are analyzed by analysis of variance (ANOVA) followed by post-hoc Tukey's test. A value of p<0.05 was considered to be statistically significant and is indicated on the figure by an asterisk over the relevant treatment group.

MBP induced acute EAE = assay: MBP induced acute EAE; type: in vivo, Lewis rats; conditions: 30 mg/kg i.v. daily for 5 consecutive days from day of disease induction
Protocol: In the present study, EAE was induced by injection of Myelin Basic Protein (MBP), a method known to model the acute phase of MS. In this model the onset of the disease is observed by the appearance of clinical symptoms about 10 days after induction. The disease progresses and the clinical score increases and peaks around day 15 and spontaneous recovery is observed around day 23 after induction of the disease.
Female Lewis rats (average body weight 130-180 g, Harlan, Israel) were injected s.c. into the hind paws with 25 μg of purified guinea pig myelin basic protein (MBP, Sigma) emulsified in 0.1 ml of Complete Freund's Adjuvant (Difco). Animals were maintained on a 12 hours light/12 hours dark regimen, at a constant temperature of 22° C., with food and water ad libitum. Starting from day 8 following induction, animals were followed up on a daily basis. The results are recorded as clinical score; score of 0 indicates a normal animal with no clinical signs, 0.5 indicates a loss of tonicity in the tail's distal part, 1 indicates whole tail paralysis, 1.5 indicates hind legs weakness in one leg, 2 indicates hind legs weakness in two legs, 2.5 indicates fore legs paralysis in one leg, 3 indicates paralysis of all four legs, 4 indicates complete body paralysis and moribund state and 5 indicates death. The clinical score of the animals is recorded for 15 days following onset of disease until the end of the study 25 days following induction and the area under the curve (AUC) is calculated over this period of time.
Few routes of administration were assessed and the treatments were either administered intravenously (in CE vehicle) or orally by gavage (in PB vehicle) at volume dose of 5 ml/kg.
Results are expressed as mean±SEM and the differences between the treatment groups were analyzed by analysis of variance (ANOVA) followed by Tukey's post hoc test. A value of p<0.05 was considered to be statistically significant and is indicated on the figure by an asterisk over the relevant treatment group.
Compound 18A was dissolved in CREMOPHOR EL®:ethanol and further diluted in physiological buffer prior to i.v. administration. It is now disclosed that compound 18F could be dissolved directly in 80 mM phosphate buffer (pH 6.4) and administered p.o. Compound 18F was administered by oral gavage at doses of 20, 30, 40, 50 and 60 mg/kg to animals showing clinical signs of the disease. Each treatment group comprised at least 10 animals at onset of disease. At some doses, experiments were repeated up to four times.

iNOS = iNOS gene expression in LPS activated RAW 264.7 macrophages (real-time RT-PCR); type: cell-based, mouse; conditions: 10 μM, 1 h pre-treatment, 3 hrs after LPS activation
Protocol: RAW 264.7 macrophages, a mouse cell line (ATCC # TIB 71), were grown in Dulbecco's modified Eagle's medium (DMEM) with 4 mM L-glutamine adjusted to contain 1.5 g/L sodium bicarbonate, 4.5 g/L glucose, and 10% heat inactivated fetal bovine serum. Cells were grown in tissue culture flasks and seeded at appropriate density into 6 wells tissue culture plates. Four million Raw cells in half a milliliter were stimulated with 1 μg/ml Lipopolysaccharide E. coli 055:B5 (DIFCO Laboratories). The mouse macrophages were pre-treated for one hour with controls or 10 μM of test compounds, and later on activated with LPS. RNA samples were extracted from the cells 3 hrs after activation and iNOS gene expression levels were analyzed by real-time RT-PCR as previously described. For western blot analysis, compounds were tested at 1, 5 and 10 μM and cells were harvested 24 hrs after LPS stimulation. Supernatant were collected and NO secretion was analyzed using ELISA. Cells were washed 3 times with cold PBS, scrapped and lyzed in 100 μl cell lysis buffer containing 20 mM HEPES, pH 7.6, 150 mM NaCl, 1.5 mM MgCl2, 0.2 mM EDTA, 1% Triton X-100, 10% glycerol, 1 mM DTT, 1 mM PMSF, 10 μg/ml aprotinin. 5 µg/ml leupeptin, 10 mM p-nitrophenyl phosphate, 100 mM β-glycerophosphate, 1 mM sodium fluoride, and 0.1 μM sodium orthovanadate. Cells were lyzed on ice for 10 minutes before further processing.
The results of this experiment are expressed as fold activation of iNOS over non-activated macrophages, after normalization to cyclophilin A expression. Compound 18A inhibits 63% of iNOS gene expression, and compounds 18B, 18E and 18F inhibit 55%, 25% and 100% respectively. […] This surprising observation strengthen the fact that compounds of the invention, though chemically related, have distinct and unexpected properties.

CCCCCCC(C)(C)c1cc(OC(=O)CCC(=O)O)c([C@H]2CC(=O)C3CC2C3(C)C)c(OC(=O)CCC(=O)O)c1 (single isomer, unassigned; (-)) [Compound 18C, (−)-4-{4-[1,1-dimethylheptyl]-2,6-disuccinate-phenyl}-6,6-dimethyl-bicyclo[3.1.1]heptan-2-one] was tested. Which “inhibition of pain response as compared to untreated animals” value (“inhibition … compared to untreated animals” below) (visceral pain) did it give?
The value was 93%.

What about the IC50 (CB2 receptor) of the same compound?
The IC50 was 1.52 nM.

What about the IC50 (CB1 receptor) of the same compound?
The IC50 was 117 nM.

What does the source list for CCCCCCC(C)(C)c1cc(OP(=O)(OCC)OCC)c([C@H]2CC(=O)C3CC2C3(C)C)c(OP(=O)(OCC)OCC)c1 (single isomer, unassigned; (-)) [Compound 18D, (−)-4-{4-[1,1-dimethylheptyl]-2,6-bi-diethylphosphate-phenyl}-6,6-dimethyl-bicyclo[3.1.1]heptan-2-one]?
inhibition of writhing responses as compared to vehicle treated group (visceral pain; 2 mg/kg i.v.): minimal effect; IC50 (CB2 receptor): > 1000 nM; IC50 (CB1 receptor): > 1000 nM

With CCCCCCC(C)(C)c1cc(OC(=O)/C=C/C(=O)O)c(C2CC(=O)[C@H]3C[C@@H]2C3(C)C)c(OC(=O)/C=C/C(=O)O)c1 (single isomer, unassigned; (-)) [Compound 18G, (−)-4-{4-[1,1-Dimethylheptyl]-2,6-difumarate-phenyl}-6,6-dimethyl-bicyclo[3.1.1]heptan-2-one] as the compound, how does the “inhibition of writhing responses as compared to vehicle treated group” value (shortened to “inhibition … compared to vehicle treated group”) (visceral pain; 2 mg/kg i.v.) read?
Its value is 91%.

What about the “inhibition … compared to untreated animals” value (visceral pain) of the same compound?
The value was 56%.

And the “paw volume, percent of vehicle” value (inflammatory pain; 20 mg/kg p.o.)?
Its value is 96%.

And the “reduction of ΔLT, thermal stimulus” value (inflammatory pain; 20 mg/kg p.o.)?
The value was “ineffective”.

And the “reduction in Δforce, mechanical stimulus” value (inflammatory pain; single dose of 20 mg/kg p.o.)?
Its value is 8%.

What about the IC50 (CB2 receptor) of the same compound?
The IC50 was 30 nM.

And the IC50 (CB1 receptor)?
Its IC50 is 325 nM.

With CCCCC(C)(C)c1cc(O)c([C@H]2CC(=O)C3CC2C3(C)C)c(OC(=O)/C=C/C(=O)O)c1 (single isomer, unassigned; (-)) [Compound 18H, (−)-4-{4-[1,1-Dimethylpentyl]-2-fumarate-6-hydroxy-phenyl}-6,6-dimethyl-bicyclo[3.1.1]heptan-2-one] as the compound, how does the “inhibition … compared to vehicle treated group” value (visceral pain; 2 mg/kg i.v.) read?
The value was 38%.

And the “inhibition … compared to untreated animals” value (visceral pain)?
Its value is “not effective”.

What does the source list for Oc1cc2c(cc1O)CN(C(=S)NCCc1ccc(Cl)cc1)CCC2 [CPZ, Capsazepine, reference compound]?
reduction of writhing responses as compared to vehicle treated animals (visceral pain; 0.5 mg/kg i.v.): no activity; reduction of writhing responses as compared to vehicle treated animals (visceral pain; 2 mg/kg i.v.): 67%

How did the “effect of antagonist alone on number of writhing responses” value (visceral pain) turn out when Cc1c(C(=O)NN2CCCCC2)nn(-c2ccc(Cl)cc2Cl)c1-c1ccc(Cl)cc1 [SR141716A, reference compound] was run?
The value was “had not effect”.

For Cc1ccc(-c2cc(C(F)(F)F)nn2-c2ccc(S(N)(=O)=O)cc2)cc1 [celecoxib, reference compound], which “activity in visceral pain model” value (visceral pain) is on record?
Its value is “inactive”.

O=C(O)/C=C/C(=O)O [fumaric acid, reference compound] was tested. Which “activity in visceral pain model” value (visceral pain) did it give?
Its value is “inactive”.

Which “reduction in AUC of clinical score” value (MBP induced acute EAE) does the source give for C[C@H]1C[C@@H]2[C@H]([C@@H](O)C[C@@]3(C)[C@H]2CC[C@]3(O)C(=O)CO)[C@@]2(C)C=CC(=O)C=C12 [methylprednisolone, reference compound] here?
Its value is 34%.

“(−)-4-{4-[1,1-Dimethylpentyl]-2-succinate-6-hydroxy-phenyl}-6,6-dimethyl-bicyclo[3.1.1]heptan-2-one [Compound 18E]” was tested. Which “inhibition of iNOS gene expression” value (iNOS) did it give?
Its value is 25%.

What about the “inhibition … compared to vehicle treated group” value (visceral pain; 2 mg/kg i.v.) of the same compound?
The value was “minimal effect”.

What about the “inhibition … compared to untreated animals” value (visceral pain) of the same compound?
Its value is “not effective”.

What about the IC50 (CB2 receptor; read-out: CB2 IC50, displacement of radioligand) of the same compound?
The IC50 was 7.4 nM.

And the IC50 (CB1 receptor; read-out: CB1 IC50, displacement of radioligand)?
The IC50 was 315 nM.

With SR144528 [reference compound] as the compound, how does the “effect of antagonist alone on number of writhing responses” value (visceral pain) read?
Its value is “had not effect”.
